In PubChem BioAssay AID1259407 (Chemical Carcinogenesis Research Information System (CCRIS), 2018):
Active and inactive are the calls of the source. How the calls were made is not given here.

Test system: CCRIS mutagenicity, Ames/micronucleus/aberration tests
Experiment: CCRIS mutagenicity studies
[1] = Test System: AMES SALMONELLA TYPHIMURIUM, Strain/Indicator: TA98, Metabolic Activation: NONE, Method: STANDARD PLATE

Measured: mutagenic call

OB(O)O
inactive: End Point: In vitro micronucleus, Test System: Human peripheral blood lymphocytes, Metabolic Activation: None inactive; negative | Test System: AMES SALMONELLA TYPHIMURIUM, Strain/Indicator: TA98, Metabolic Activation: HAMSTER, LIVER, S-9, AROCLOR 1254, Method: PREINCUBATION inactive; negative | Test System: AMES SALMONELLA TYPHIMURIUM, Strain/Indicator: TA98, Metabolic Activation: NONE, Method: PREINCUBATION inactive; negative | [1] inactive; negative | Test System: AMES SALMONELLA TYPHIMURIUM, Strain/Indicator: TA98, Metabolic Activation: RAT LIVER S-9, PHENOBARBITAL AND BETA-NAPHTHOFLAVONE, Method: PREINCUBATION inactive; negative | Test System: AMES SALMONELLA TYPHIMURIUM, Strain/Indicator: TA98, Metabolic Activation: RAT, LIVER, S-9, AROCLOR 1254, Method: PREINCUBATION inactive; negative | Test System: AMES SALMONELLA TYPHIMURIUM, Strain/Indicator: TA98, Metabolic Activation: RAT, LIVER, S-9, BETA-NAPHTHOFLAVONE AND PHENOBARBITAL, Method: STANDARD PLATE inactive; negative | Test System: AMES SALMONELLA TYPHIMURIUM, Strain/Indicator: TA100, Metabolic Activation: HAMSTER, LIVER, S-9, AROCLOR 1254, Method: PREINCUBATION inactive; negative | Test System: AMES SALMONELLA TYPHIMURIUM, Strain/Indicator: TA100, Metabolic Activation: NONE, Method: PREINCUBATION inactive; negative | Test System: AMES SALMONELLA TYPHIMURIUM, Strain/Indicator: TA100, Metabolic Activation: RAT LIVER S-9, PHENOBARBITAL AND BETA-NAPHTHOFLAVONE, Method: PREINCUBATION inactive; negative | Test System: AMES SALMONELLA TYPHIMURIUM, Strain/Indicator: TA100, Metabolic Activation: RAT, LIVER, S-9, AROCLOR 1254, Method: PREINCUBATION inactive; negative | Test System: AMES SALMONELLA TYPHIMURIUM, Strain/Indicator: TA100, Metabolic Activation: RAT, LIVER, S-9, BETA-NAPHTHOFLAVONE AND PHENOBARBITAL, Method: STANDARD PLATE inactive; negative | Test System: AMES SALMONELLA TYPHIMURIUM, Strain/Indicator: TA102, Metabolic Activation: NONE, Method: STANDARD PLATE inactive; negative | Test System: AMES SALMONELLA TYPHIMURIUM, Strain/Indicator: TA102, Metabolic Activation: RAT, LIVER, S-9, BETA-NAPHTHOFLAVONE AND PHENOBARBITAL, Method: STANDARD PLATE inactive; negative | Test System: AMES SALMONELLA TYPHIMURIUM, Strain/Indicator: TA1535, Metabolic Activation: HAMSTER, LIVER, S-9, AROCLOR 1254, Method: PREINCUBATION inactive; negative | Test System: AMES SALMONELLA TYPHIMURIUM, Strain/Indicator: TA1535, Metabolic Activation: NONE, Method: PREINCUBATION inactive; negative | Test System: AMES SALMONELLA TYPHIMURIUM, Strain/Indicator: TA1535, Metabolic Activation: RAT LIVER S-9, PHENOBARBITAL AND BETA-NAPHTHOFLAVONE, Method: PREINCUBATION inactive; negative | Test System: AMES SALMONELLA TYPHIMURIUM, Strain/Indicator: TA1535, Metabolic Activation: RAT, LIVER, S-9, AROCLOR 1254, Method: PREINCUBATION inactive; negative | Test System: AMES SALMONELLA TYPHIMURIUM, Strain/Indicator: TA1537, Metabolic Activation: HAMSTER, LIVER, S-9, AROCLOR 1254, Method: PREINCUBATION inactive; negative | Test System: AMES SALMONELLA TYPHIMURIUM, Strain/Indicator: TA1537, Metabolic Activation: NONE, Method: PREINCUBATION inactive; negative | Test System: AMES SALMONELLA TYPHIMURIUM, Strain/Indicator: TA1537, Metabolic Activation: RAT LIVER S-9, PHENOBARBITAL AND BETA-NAPHTHOFLAVONE, Method: PREINCUBATION inactive; negative | Test System: AMES SALMONELLA TYPHIMURIUM, Strain/Indicator: TA1537, Metabolic Activation: RAT, LIVER, S-9, AROCLOR 1254, Method: PREINCUBATION inactive; negative | Test System: AMES SALMONELLA TYPHIMURIUM, Strain/Indicator: TA1538, Metabolic Activation: NONE, Method: PREINCUBATION inactive; negative | Test System: AMES SALMONELLA TYPHIMURIUM, Strain/Indicator: TA1538, Metabolic Activation: RAT LIVER S-9, PHENOBARBITAL AND BETA-NAPHTHOFLAVONE, Method: PREINCUBATION inactive; negative | Test System: E.COLI, Strain/Indicator: WP2UVRA, Metabolic Activation: NONE, Method: PREINCUBATION inactive; negative | Test System: E.COLI, Strain/Indicator: WP2UVRA, Metabolic Activation: RAT LIVER S-9, PHENOBARBITAL AND BETA-NAPHTHOFLAVONE, Method: PREINCUBATION inactive; negative | Test System: MOUSE LYMPHOMA, Strain/Indicator: L5178Y (TK+/TK-), Metabolic Activation: NONE, Method: SUSPENSION/PLATE inactive; negative | Test System: MOUSE LYMPHOMA, Strain/Indicator: L5178Y (TK+/TK-), Metabolic Activation: RAT, LIVER, S-9, AROCLOR 1254, Method: SUSPENSION/PLATE inactive; negative
active: End Point: In vitro chromosomal aberrations, Test System: Human peripheral lymphocytes, Metabolic Activation: None active; positive (structural changes)

COc1c2ccccc2[n+]([O-])c2occc12
inactive: [1] inactive; negative | Test System: AMES SALMONELLA TYPHIMURIUM, Strain/Indicator: TA98, Metabolic Activation: RAT LIVER S-9, PHENOBARTITAL, Method: STANDARD PLATE inactive; negative

C=CCNC1=C2C[C@@H](C)C[C@H](OC)[C@H](O)[C@@H](C)/C=C(\C)[C@H](OC(N)=O)[C@@H](OC)/C=C\C=C(/C)C(=O)NC(=CC1=O)C2=O
inactive: Test System: Mouse lymphoma, Strain/Indicator: L5178Y (tk+/tk-), Metabolic Activation: Rat, Liver, S-9, Aroclor 1254, Method: Suspension/plate inactive; negative
active: Test System: Mouse lymphoma, Strain/Indicator: L5178Y (tk+/tk-), Metabolic Activation: None, Method: Suspension/plate active; positive

Fc1ccc(F)c2c1ccc1cccnc12
active: Test System: AMES SALMONELLA TYPHIMURIUM, Strain/Indicator: TA100, Metabolic Activation: RAT, LIVER, S-9, PHENOBARBITAL AND 5,6-BENZOFLAVONE, Method: PREINCUBATION active; positive

CCCCCC/C=C/C=O
inactive: End Point: IN VITRO CHROMOSOMAL ABERRATIONS, Test System: RAT HEPATOCYTES, Metabolic Activation: NONE inactive; negative | End Point: IN VITRO MICRONUCLEUS, Test System: RAT HEPATOCYTES, Metabolic Activation: NONE inactive; negative | Test System: CHINESE HAMSTER V-79, Strain/Indicator: V-79/OUABAIN, Metabolic Activation: NONE, Method: STANDARD PLATE inactive; negative
active: Test System: CHINESE HAMSTER V-79, Strain/Indicator: V-79/6-THIOGUANINE, Metabolic Activation: NONE, Method: STANDARD PLATE active; positive

Cc1c(C)c(N)c(C)c(C)c1N
inactive: [1] inactive; negative | Test System: AMES SALMONELLA TYPHIMURIUM, Strain/Indicator: TA98, Metabolic Activation: RAT, LIVER, S-9, AROCLOR 1254, Method: STANDARD PLATE inactive; negative | Test System: AMES SALMONELLA TYPHIMURIUM, Strain/Indicator: TA100, Metabolic Activation: NONE, Method: STANDARD PLATE inactive; negative | Test System: AMES SALMONELLA TYPHIMURIUM, Strain/Indicator: TA100, Metabolic Activation: RAT, LIVER, S-9, AROCLOR 1254, Method: STANDARD PLATE inactive; negative | Test System: AMES SALMONELLA TYPHIMURIUM, Strain/Indicator: TA1535, Metabolic Activation: NONE, Method: STANDARD PLATE inactive; negative | Test System: AMES SALMONELLA TYPHIMURIUM, Strain/Indicator: TA1535, Metabolic Activation: RAT, LIVER, S-9, AROCLOR 1254, Method: STANDARD PLATE inactive; negative | Test System: AMES SALMONELLA TYPHIMURIUM, Strain/Indicator: TA1537, Metabolic Activation: NONE, Method: STANDARD PLATE inactive; negative | Test System: AMES SALMONELLA TYPHIMURIUM, Strain/Indicator: TA1537, Metabolic Activation: RAT, LIVER, S-9, AROCLOR 1254, Method: STANDARD PLATE inactive; negative | Test System: AMES SALMONELLA TYPHIMURIUM, Strain/Indicator: TA1538, Metabolic Activation: NONE, Method: STANDARD PLATE inactive; negative | Test System: AMES SALMONELLA TYPHIMURIUM, Strain/Indicator: TA1538, Metabolic Activation: RAT, LIVER, S-9, AROCLOR 1254, Method: STANDARD PLATE inactive; negative
